Assay results taken from PubChem BioAssay AID588440 (The Scripps Research Institute Molecular Screening Center, 2011).
Calls of active or inactive are those of the source.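 Rule for the calls: active = half-maximal cytotoxic concentration at or below 10 µM; inactive = the rest.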

Test system: HEK293 LDH release cytotoxicity, resorufin fluorescence
Test: HEK cell cytotoxicity by LDH release, dose response, cytotoxicity control for IDE activator project, fluorescence, HEK cells (AID 588440)

| Structure (SMILES) | CC50 |
| --- | --- |
| C#CCOCCOCCOCCNc1nc(N2CCN(C(=O)CCCCCCCCCCNC(=O)[C@H](CO)n3cc(CCCSC)nn3)CC2)nc(N2CCN(C(=O)CCCCCCCCCCNC(=O)[C@H](CCCCN)n3cc(CCO)nn3)CC2)n1 | 20.8 µM (inactive) |
| C#CCOCCOCCOCCNc1nc(N2CCN(C(=O)CCCCCCCCCCNC(=O)[C@@H](CCSC)n3cc(CCO)nn3)CC2)nc(N2CCN(C(=O)CCCCCCCCCCNC(=O)[C@H](CO)n3cc(CCCCCN)nn3)CC2)n1 | 12.6 µM (inactive) |
| C#CCOCCOCCOCCNc1nc(N2CCN(C(=O)CCCCCCCCCCNC(=O)[C@H]([C@@H](C)CC)n3cc(CCCCCN)nn3)CC2)nc(N2CCN(C(=O)CCCCCCCCCCNC(=O)[C@H]([C@@H](C)CC)n3cc(CCCCN=C(N)N)nn3)CC2)n1 | 2.07 µM |
| C#CCOCCOCCOCCNc1nc(N2CCN(C(=O)CCCCCCCCCCNC(=O)[C@H]([C@@H](C)CC)n3cc(CCCCN=C(N)N)nn3)CC2)nc(N2CCN(C(=O)CCCCCCCCCCNC(=O)[C@@H]([C@H](C)O)n3cc(C)nn3)CC2)n1 | 6.37 µM |
| C#CCOCCOCCOCCNc1nc(N2CCN(C(=O)CCCCCCCCCCNC(=O)Cn3cc(CCCCCN)nn3)CC2)nc(N2CCN(C(=O)CCCCCCCCCCNC(=O)[C@H](CO)n3cc(CCCSC)nn3)CC2)n1 | 17.4 µM (inactive) |
| C#CCOCCOCCOCCNc1nc(N2CCN(C(=O)CCCCCCCCCCNC(=O)Cn3cc(CCCCCN)nn3)CC2)nc(N2CCN(C(=O)CCCCCCCCCCNC(=O)Cn3cc(C[C@@H](C)O)nn3)CC2)n1 | 16.4 µM (inactive) |
| C#CCOCCOCCOCCNc1nc(N2CCN(C(=O)CCCCCCCCCCNC(=O)[C@H](CCCCN)n3cc(CCO)nn3)CC2)nc(N2CCN(C(=O)CCCCCCCCCCNC(=O)[C@H](CCCN=C(N)N)n3cc(C[C@@H](C)CC)nn3)CC2)n1 | 5.63 µM |
| C#CCOCCOCCOCCNc1nc(N2CCN(C(=O)CCCCCCCCCCNC(=O)Cn3cc(C[C@@H](C)O)nn3)CC2)nc(N2CCN(C(=O)CCCCCCCCCCNC(=O)[C@H](CCCN=C(N)N)n3cc(C[C@@H](C)CC)nn3)CC2)n1 | 7.28 µM |
| C#CCOCCOCCOCCNc1nc(N2CCN(C(=O)CCCCCCCCCCNC(=O)Cn3cc(CCCCCN)nn3)CC2)nc(N2CCN(C(=O)CCCCCCCCCCNC(=O)[C@H]([C@@H](C)CC)n3cc(CCCCCN)nn3)CC2)n1 | 5.97 µM |
